Experimental data: patent publication US7858606B2, “Triterpenoid derivatives” (Univerzita Palackeho v Olomouci, priority 2001, dated 2010)
Where two headings read alike, the source gives them in different places.

Tests used:
Type in all cases: cell-based
[1] = system: Human T-lymphoblastic leukaemia cell line CEM; assay: MTT cytotoxicity screening assay, CEM; conditions: human T-lymphoblastic leukemia, 72 hours, read-out: TCS50
Description: (§1) One of the parameters used as the basis for colorimetric assays is the metabolic activity of viable cells. For example, a microtiter assay which uses the tetrazolium salt MTT is now widely used to quantitate cell proliferation and cytotoxicity [Hajdúch M, Mihál V, Minarík J, Fáber E, Safárová M, Weigl E, Antálek P.: Cytotechnology, 1996, 19, 243-245]. For instance, this assay is used in drug screening programs and in chemosensitivity testing. Because tetrazolium salts are cleaved only by metabolically active cells, these assays exclusively detect viable cells. In the case of the MTT assay, yellow soluble tetrazolium salt is reduced to a coloured water-insoluble formazan salt. After it is solubilized, the formazan formed can easily and rapidly be quantified in a conventional ELISA plate reader at 570 nm (maximum absorbency). The quantity of reduced formazan corresponds to the number of vital cells in the culture.
(§2) Human T-lymphoblastic leukaemia cell line CEM was used for routine screening of these compounds. […] The cells were maintained in Nunc/Corning 80 cm^2 plastic tissue culture flasks and cultured in cell culture medium (DMEM with 5 g/l glucose, 2 mM glutamine, 100 U/ml penicillin, 100 μg/ml streptomycin, 10% foetal calf serum and sodium bicarbonate). Individual compounds were dissolved in 10% dimethylsulfoxide/saline, pH 8.0.
The cell suspensions that were prepared and diluted according to the particular cell type and the expected target cell density (2.500-30.000 cells per well based on cell growth characteristics) were added by pipette (80 μl) into 96/well microtiter plates. Inoculates were allowed a pre-incubation period of 24 hours at 37° C. and 5% CO2 for stabilisation. Four-fold dilutions of the intended test concentration were added at time zero in 20 μl aliquots to the microtiter plate wells. Usually, test compounds were evaluated at six 4-fold dilutions. In routine testing, the highest well concentration was 250 μM, but it may differ, depending on the agent. All drug concentrations were examined in duplicate. Incubations of cells with the test compounds lasted for 72 hours at 37° C., in 5% CO2 atmosphere and 100% humidity. At the end of the incubation period, the cells were assayed by using the MTT assay. Ten microliters of the MTT stock solution were pipetted into each well and incubated further for 1-4 hours. After this incubation period, formazan was solubilized by the addition of 100 μl/well of 10% SDS in water (pH=5.5) followed by further incubation at 37° C. overnight. The optical density (OD) was measured at 540 nm with the Labsystem iEMS Reader MF(UK). The tumour cell survival (TCS) was calculated using the following equitation: TCS=(ODdrug exposed well/mean ODcontrol wells)×100%. The TCS50 value, the drug concentration lethal to 50% of the tumour cells, was calculated from the obtained dose response curves.
To evaluate the anti-cancer activity of betulinines, their cytotoxic activity against CEM cell line was examined using the screening assay. Potent compounds were further tested against a panel of cell lines of different histogenetic and species origin (Table 2).

[2] = system: HepG2 human hepatocellular carcinoma; assay: MTT cytotoxicity assay, HepG2; conditions: 72 hours, read-out: TCS50
Description: as §1, §2
(§3) The cell suspensions that were prepared and diluted according to the particular cell type and the expected target cell density (2.500-30.000 cells per well based on cell growth characteristics) were added by pipette (80 μl) into 96/well microtiter plates. […] Usually, test compounds were evaluated at six 4-fold dilutions. […] The optical density (OD) was measured at 540 nm with the Labsystem iEMS Reader MF(UK). The tumour cell survival (TCS) was calculated using the following equitation: TCS=(ODdrug exposed well/mean ODcontrol wells)×100%. The TCS50 value, the drug concentration lethal to 50% of the tumour cells, was calculated from the obtained dose response curves.

[3] = system: BT549 human breast cancer; assay: MTT cytotoxicity assay, BT549; conditions: 72 hours, read-out: TCS50
Description: as §1, §2, §3

[4] = system: K562-CdA human promyelocytic leukemia, cladrubin resistant; assay: MTT cytotoxicity assay, K562-CdA; conditions: 72 hours, read-out: TCS50
Description: as §1, §2, §3

[5] = system: Caco-2 human colon cancer; assay: MTT cytotoxicity assay, Caco-2; conditions: 72 hours, read-out: TCS50
Description: as §1, §2, §3

human normal lymphocytes = assay: MTT cytotoxicity assay, normal lymphocytes; conditions: human normal lymphocytes (non-malignant), 72 hours, read-out: TCS50
Description: as §1, §2, §3

[6] = system: SW620 human colon cancer, metastasis; assay: MTT cytotoxicity assay, SW620; conditions: read-out: TCS50
Description: as §1, §2, §3

[7] = system: MCF-7 human breast cancer; assay: MTT cytotoxicity assay, MCF-7; conditions: estrogen dependent, p53+/+, Rb +/+, 72 hours, read-out: TCS50
Description: as §1, with “culture. […]” for “culture.”
(§4) The cell suspensions that were prepared and diluted according to the particular cell type and the expected target cell density (2.500-30.000 cells per well based on cell growth characteristics) were added by pipette (80 μl) into 96/well microtiter plates. […] Usually, test compounds were evaluated at six 4-fold dilutions. […] The optical density (OD) was measured at 540 nm with the Labsystem iEMS Reader MF(UK). […]

U2OS human osteosarcoma = assay: MTT cytotoxicity assay, U2OS; conditions: p53+/−, Rb +/−, 72 hours, read-out: TCS50
Description: as §1, §2, §3

[8] = system: MDA-MB-238 human breast cancer; assay: MTT cytotoxicity assay, MDA-MB-238; conditions: estrogen independent, p53mut/mut, 72 hours, read-out: TCS50
Description: as §1, with “culture. […]” for “culture.”
as §4

[9] = system: CEM-VCR 3/D5 human T-lymphoblastic leukemia, vincristin resistant; assay: MTT cytotoxicity assay, CEM-VCR 3/D5; conditions: 72 hours, read-out: TCS50
Description: as §1, §2, §3

[10] = system: NIH3T3 mouse immortalised fibroblasts; assay: MTT cytotoxicity assay, NIH3T3; conditions: NIH3T3, mouse immortalised fibroblasts (non-malignant), 72 hours, read-out: TCS50
Description: as §1, §2, §3

Saos2 human = assay: MTT cytotoxicity assay, Saos2; conditions: p53−/−, Rb−/−, 72 hours, read-out: TCS50
Description: as §1, §2, §3

[11] = system: LNCaP human prostate cancer; assay: MTT cytotoxicity assay, LNCaP; conditions: androgen dependent, 72 hours, read-out: TCS50
Description: as §1, with “culture. […]” for “culture.”
as §4

[12] = system: CEM-DNR bulk human T-lymphoblastic leukemia, daunorubicin resistant; assay: MTT cytotoxicity assay, CEM-DNR bulk; conditions: 72 hours, read-out: TCS50
Description: as §1, §2, §3

[13] = system: K562-ARA-C human promyelocytic leukemia, cytarabin resistant; assay: MTT cytotoxicity assay, K562-ARA-C; conditions: 72 hours, read-out: TCS50
Description: as §1, §2, §3

[14] = system: K562-FLUD human promyelocytic leukemia, fludarabin resistant; assay: MTT cytotoxicity assay, K562-FLUD; conditions: 72 hours, read-out: TCS50
Description: as §1, §2, §3

U87MG human glioblastoma = assay: MTT cytotoxicity assay, U87MG; conditions: 72 hours, read-out: TCS50
Description: as §1, §2, §3

[15] = system: B16F mouse melanoma, metastatic cell line; assay: MTT cytotoxicity assay, B16F; conditions: 72 hours, read-out: TCS50
Description: as §1, §2, §3

[16] = system: B16 mouse melanoma cell line; assay: MTT cytotoxicity assay, B16; conditions: 72 hours, read-out: TCS50
Description: as §1, §2, §3

[17] = system: K562-GEM human promyelocytic leukemia, gemcitabin resistant; assay: MTT cytotoxicity assay, K562-GEM; conditions: 72 hours, read-out: TCS50
Description: as §1, with “culture. […]” for “culture.”
as §4

[18] = system: CEM-VCR bulk human T-lymphoblastic leukemia, vincristin resistant; assay: MTT cytotoxicity assay, CEM-VCR bulk; conditions: 72 hours, read-out: TCS50
Description: as §1, §2, §3

[19] = system: DU145 human prostate cancer; assay: MTT cytotoxicity assay, DU145; conditions: androgen independent, Rb−/−, 72 hours, read-out: TCS50
Description: as §1, with “culture. […]” for “culture.”
as §4

MEL-3 human melanoma = assay: MTT cytotoxicity assay, MEL-3; conditions: 72 hours, read-out: TCS50
Description: as §1, §2, §3

[20] = system: CEM-VCR 1/F3 human T-lymphoblastic leukemia, vincristin resistant; assay: MTT cytotoxicity assay, CEM-VCR 1/F3; conditions: 72 hours, read-out: TCS50
Description: as §1, §2, §3

[21] = system: CEM-DNR 1/C2 human T-lymphoblastic leukemia, daunorubicin resistant; assay: MTT cytotoxicity assay, CEM-DNR 1/C2; conditions: 72 hours, read-out: TCS50
Description: as §1, §2, §3

[22] = system: OVCAR-3 human ovarian cancer; assay: MTT cytotoxicity assay, OVCAR-3; conditions: 72 hours, read-out: TCS50
Description: as §1, with “culture. […]” for “culture.”
as §4

HT-29 human colon cancer = assay: MTT cytotoxicity assay, HT-29; conditions: 72 hours, read-out: TCS50
Description: as §1, §2, §3

[23] = system: A549 human lung adenocarcinoma; assay: MTT cytotoxicity assay, A549; conditions: 72 hours, read-out: TCS50
Description: as §1, with “culture. […]” for “culture.”
as §4

| Compound | IC50 [1] [µM] | IC50 [2] [µM] | IC50 ([3]; p53mut/mut) [µM] | IC50 [4] [µM] | IC50 [5] [µM] | IC50 (human normal lymphocytes) [µM] | IC50 ([6]; 72 hours) [µM] | IC50 (U2OS human osteosarcoma) [µM] | IC50 [9] [µM] | IC50 [10] [µM] | IC50 [12] [µM] | IC50 [13] [µM] | IC50 [14] [µM] | IC50 [15] [µM] | IC50 [16] [µM] | IC50 [18] [µM] | IC50 (MEL-3 human melanoma) [µM] | IC50 [20] [µM] | IC50 [21] [µM] | IC50 (HT-29 human colon cancer) [µM] | other results |
| --- | --- | --- | --- | --- | --- | --- | --- | --- | --- | --- | --- | --- | --- | --- | --- | --- | --- | --- | --- | --- | --- |
| 3β-acetoxy-lup-20(29)-en-28-oyl fluoride [II.55] | 19 |  |  |  |  |  |  |  |  |  |  |  |  |  |  |  |  |  |  |  |  |
| COC(=O)C12CCC3(C)C(CCC4C5(C)CCC(OC(C)=O)C(C)(C)C5CCC43C)C1=C(C(C)C)C(=O)C2=O (stereo not drawn) [II.4, methyl 3β-acetoxy-21,22-dioxolup-18-en-28-oate] | 7.2 | 5.1 | 15 | 5.2 | 8.1 | 85 | 5.9 | 4.3 | 13 | 97 | 5.2 | 6.4 | 4.9 | 68 | 35 | 28 | 5.9 | 38 | 10 | 5.6 | IC50 [7]: 13 µM; IC50 [8]: 3.3 µM; IC50 (Saos2 human; Saos2, human rhabdomyosarcoma): 7.9 µM; IC50 [11]: 3.3 µM; IC50 (U87MG human glioblastoma): 24 µM; IC50 [17]: 5 µM; IC50 [19]: 2 µM; IC50 [22]: 4.7 µM; IC50 [23]: 6.7 µM |
| C=C(C)[C@@H]1CC[C@]2(C(=O)O)CC[C@]3(C)[C@H](CC[C@@H]4[C@@]5(C)CC[C@H](O)C(C)(C)[C@@H]5CC[C@]43C)[C@@H]12 [Betulinic acid, betulinic acid, reference compound] | 250 | 3.6 |  | 250 | 20 |  |  | 250 | 24 | 250 | 250 | 250 | 250 | 4.6 | 36 | 69 | 2.7 | 19 | 250 | 250 | IC50 ([3]; BT-549, p53mut/mut): 250 µM; IC50 (human normal lymphocytes; Lymphocyte): 250 µM; IC50 ([6]; SW-620, 72 hours): 250 µM; IC50 (Saos2 human; SAOS-2, Saos2, human rhabdomyosarcoma): 250 µM; IC50 (U87MG human glioblastoma; U-87 MG): 250 µM |
| C=C(C)C1CCC2(C(=O)OC)CCC3(C)C(CCC4C5(C)CCC(OC(=O)OCC(O)CO)C(C)(C)C5CCC43C)C12 (stereo not drawn) [II.45, 17β-methoxycarbonyl-28-norlup-20(29)-en-3β-yl(2,3-dihydroxypropyl)carbonate] | 13 |  |  |  |  |  |  |  |  |  |  |  |  |  |  |  |  |  |  |  |  |
| C=C(C=O)[C@@H]1CC[C@]2(C(=O)O)CC[C@]3(C)[C@H](CC[C@@H]4[C@@]5(C)CC[C@H](O)C(C)(C)[C@@H]5CC[C@]43C)[C@@H]12 [II.14, 3β-hydroxy-30-oxolup-20(29)-en-28-oic acid] | 3 | 7.1 | 6.3 | 2.1 | 7.7 | 25 | 5.9 | 3.9 | 7.8 | 16 | 3.3 | 1.6 | 1.3 | 12 | 9.3 | 7 | 3.7 | 5.9 | 1.6 | 4.7 | IC50 [7]: 4.3 µM; IC50 [8]: 2.4 µM; IC50 (Saos2 human; Saos2, human rhabdomyosarcoma): 4.8 µM; IC50 [11]: 3.6 µM; IC50 (U87MG human glioblastoma): 8.4 µM; IC50 [17]: 2.4 µM; IC50 [19]: 2.8 µM; IC50 [22]: 2.6 µM; IC50 [23]: 3.3 µM |
